Assay results published in US20070219210A1, “Amidopyrazole Derivative” (Daiichi Pharmaceutical Co., LTD., priority 2003, published 2007).
Where two headings read alike, the source gives them in different places.

Key:
[1] = system: collagen-induced platelet coagulation; assay: Inhibitory effect on collagen-induced platelet coagulation in platelet rich plasma; type: cell-based; details: human platelet rich plasma, 37° C., coagulation induced with collagen; read-out: Inhibition of collagen-induced platelet coagulation, IC50
Method: Human blood was collected by using 1/10 volume of 3.13% sodium citrate as an anticoagulant, and the blood was centrifuged at 180 g for 10 minutes to separate platelet rich plasma (PRP), which was the upper layer. After collecting the upper layer PRP, the remaining lower layer was centrifuged at 1600 g for 10 minutes, and platelet poor plasma (PPP) in the upper layer was collected. 1 μl solution of the compound of the Examples was added to 200 μl of the PRP, and after allowing the sample to stand at 37° C. for 2 minutes, 2 μl of collagen was added in order to induce platelet coagulation. Platelet coagulation rate was measured with PAM-12C (SSR Engineering).

Cyclooxygenase-2 (COX-2) = molecular target: T1, Cyclooxygenase-2 (COX-2) (Homo sapiens, UniProt P35354); assay: COX Inhibitor Screening Assay Kit (Cayman), PGF2α by ELISA, COX-2; type: biochemical; details: compound at 50 μm; relative to PGF2α produced without compound (100%)
T1 construct: purchased Cayman Chemical Company 560121
T1 sequence (P35354 18-604): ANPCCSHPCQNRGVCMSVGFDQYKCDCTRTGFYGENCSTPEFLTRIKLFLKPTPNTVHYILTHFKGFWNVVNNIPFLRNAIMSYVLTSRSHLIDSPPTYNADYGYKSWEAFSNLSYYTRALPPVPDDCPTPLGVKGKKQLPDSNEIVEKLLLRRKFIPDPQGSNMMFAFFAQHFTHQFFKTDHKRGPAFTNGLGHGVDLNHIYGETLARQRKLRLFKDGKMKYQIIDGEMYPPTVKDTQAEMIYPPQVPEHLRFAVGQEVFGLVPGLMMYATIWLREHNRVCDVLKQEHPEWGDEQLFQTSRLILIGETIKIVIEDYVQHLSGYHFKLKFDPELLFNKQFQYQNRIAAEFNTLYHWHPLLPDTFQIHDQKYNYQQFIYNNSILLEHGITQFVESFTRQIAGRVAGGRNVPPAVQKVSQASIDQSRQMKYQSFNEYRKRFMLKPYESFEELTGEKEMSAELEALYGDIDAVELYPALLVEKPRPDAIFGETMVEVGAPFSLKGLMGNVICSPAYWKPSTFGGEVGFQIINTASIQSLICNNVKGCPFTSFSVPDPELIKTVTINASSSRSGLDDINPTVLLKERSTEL
Method: (§1) Inhibitory activity against COX-1 and COX-2 of the compounds produced in the Examples was measured by using COX Inhibitor Screening Assay Kit (Catalog Nos. 560101 and 560121) purchased from Cayman Chemical Company.
(§2) Before starting the measurement, reaction buffer, heme, arachidonic acid, SnCl2, EIA buffer, washing buffer, prostaglandin (PG) screening EIA standard, PG screening acetylcholine esterase (AchE), tracer (chromogenic enzyme HRP conjugate), and PC screening EIA antiserum were prepared ready for use.
(§3) The reaction mixture containing the compound of the Examples (50 μM) and COX-1 or COX-2 was allowed to stand at 37° C. or 10 minutes, and after adding 10 μl of arachidonic acid, the solution was again allowed to stand at 37° C. for 2 minutes. After the reaction, the reaction was terminated by adding 50 μl of 1N-hydrochloric acid, and 100 μl solution of SnCl2 was added, and the reaction mixture was allowed to stand at room temperature for 5 minutes.
(§4) 50 μl of antiserum (rabbit anti-PGF2α antibody) was placed in the wells of 96 well plate that had been coated with mouse anti-rabbit IgG and 50 μl of the 2000-fold diluted PGF2α-containing liquid described above and 50 μl of AchE tracer were added to the well in this order, and the mixture was allowed to stand at room temperature for 18 hours. The wells were washed 5 times with the washing buffer to remove an excessive AchE tracer, and 200 μl of Ellman reagent was added. After leaving the plate in a dark room for 60 minutes, absorbance was measured at 405 nm.
(§5) A calibration curve was obtained by using the PG screening EIA standard, and the amount of PGF2α produced was determined from the absorption. Inhibitory rate at 50 μM of the compound of the Examples against COX-1 or COX-2 was calculated.
(§6) It is to be noted that the inhibitory rate was calculated in relation to the amount of the PGF2α produced by the reaction liquid free from the compounds of the Examples, which was taken 100%.

Cyclooxygenase-1 (COX-1) = molecular target: T2, Cyclooxygenase-1 (COX-1) (Ovis aries, UniProt P05979); assay: COX Inhibitor Screening Assay Kit (Cayman), PGF2α by ELISA, COX-1; type: biochemical; details: compound at 50 μm; relative to PGF2α produced without compound (100%)
T2 construct: purchased Cayman Chemical Company 560101
T2 sequence (P05979 25-600): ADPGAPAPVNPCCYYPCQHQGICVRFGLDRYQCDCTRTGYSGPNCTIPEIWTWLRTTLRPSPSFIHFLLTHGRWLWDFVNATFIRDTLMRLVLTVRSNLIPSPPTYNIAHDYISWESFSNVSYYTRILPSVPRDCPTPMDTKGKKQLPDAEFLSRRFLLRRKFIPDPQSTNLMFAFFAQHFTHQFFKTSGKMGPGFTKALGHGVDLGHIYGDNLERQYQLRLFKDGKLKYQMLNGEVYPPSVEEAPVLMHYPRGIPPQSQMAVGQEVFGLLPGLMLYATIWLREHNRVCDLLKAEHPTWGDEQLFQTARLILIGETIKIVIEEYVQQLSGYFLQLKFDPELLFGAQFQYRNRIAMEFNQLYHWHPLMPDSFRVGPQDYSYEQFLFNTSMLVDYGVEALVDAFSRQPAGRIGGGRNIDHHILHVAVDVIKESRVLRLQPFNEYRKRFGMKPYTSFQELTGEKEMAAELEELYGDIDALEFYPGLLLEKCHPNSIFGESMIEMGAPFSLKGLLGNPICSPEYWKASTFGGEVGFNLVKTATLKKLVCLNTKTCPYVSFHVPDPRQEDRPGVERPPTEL
Method: as §1, §2, §3, §4, §5, §6

[2] = system: collagen-induced platelet coagulation; details: background art (Patent Document 1, Non-patent Document 5); read-out: IC50 value against collagen-induced platelet coagulation; cited from earlier work

Structure (SMILES) | IC50 [1] [nM] | Inhibitory effect against COX-2 at 50 μm (% inhibition) (Cyclooxygenase-2 (COX-2)) | Inhibitory effect against COX-1 at 50 μm (% inhibition) (Cyclooxygenase-1 (COX-1)) | IC50 [2] [nM]
CC(C)(C)NC(=O)c1cc(-c2ccc(CO)cn2)n(-c2cccnc2)n1 [Example 26, N-tert-Butyl-5-(5-hydroxymethyl-2-pyridyl)-1-(3-pyridyl)-1H-pyrazole-3-carboxamide] | 65 | 8.2 | 5.5 | 
COc1ccc(-n2nc(C(=O)NC3(C(N)=O)CCCC3)cc2-c2ccccn2)cn1 [Example 48, N-(1-Carbamoyl-1-cyclopentyl)-1-(6-methoxy-3-pyridyl)-5-(2-pyridyl)-1H-pyrazole-3-carboxamide] | 190 | 8.7 | 3.6 | 
CC(C)(C)NC(=O)c1cc(-c2ccc(Cl)cn2)n(-c2cccnc2)n1 [Example 28, N-tert-Butyl-5-(5-chloro-2-pyridyl)-1-(3-pyridyl)-1H-pyrazole-3-carboxamide] | 8.9 | 7.6 | 5.4 | 
Cc1cnc(-c2cc(C(=O)NC(C)(C)C)nn2-c2cccnc2)cn1 [Example 65, N-tert-Butyl-5-(5-methyl-2-pyrazinyl)-1-(3-pyridyl)-1H-pyrazole-3-carboxamide] | 20 | −1.6 | 11.6 | 
COc1ccc(-n2nc(C(=O)NCC3CCCO3)cc2-c2ccccn2)cn1 (stereo not shown) [Example 44, N-(Tetrahydro-2-furanylmethyl)-1-(6-methoxy-3-pyridyl)-5-(2-pyridyl)-1H-pyrazole-3-carboxamide] | 140 | 3.6 | 4.3 | 
COc1ccc(-c2cc(C(=O)NC(C)(C)C)nn2-c2cccnc2)nc1 [Example 25, N-tert-Butyl-5-(5-methoxy-2-pyridyl)-1-(3-pyridyl)-1H-pyrazole-3-carboxamide] | 18 | 8.2 | 4.7 | 
CS(=O)(=O)c1ccc(-c2cc(C#N)nn2-c2ccc(F)cc2)cc1 [Compound (A)] |  |  |  | 5300
